The results in this text go back to ChEMBL document CHEMBL1828590 (J Med Chem, 2011).

Data set [1] in a line: Half life in dog liver microsomes. The class given is ADME, Canis lupus familiaris, Microsome. On the technique in general: Liver microsomes are a subcellular fraction often used to study metabolism.
Data set [2] can be described thus: Half life in mouse liver microsomes. In kind it is ADME, Microsome. The note with it: liver microsomes.
Data set [3] is described as follows: Half life in rat liver microsomes. In kind it is ADME, Microsome.
Data set [4] in a line: Apparent permeability from apical to basolateral side of human Caco2 cells. In kind it is ADME, cell-based. The note with it: Caco-2.
The nature of data set [5]: Apparent permeability from basolateral to apical side of human Caco2 cells. In kind it is ADME, cell-based. The note with it: Caco-2. (In general: Caco-2 cells form a polarised layer with tight junctions and transporters.)
The test system of data set [6] is Mus musculus. The data set is described as follows: Toxicity in athymic nu/nu Harlan mouse xenografted with human HCT116 cells assessed as mouse survival at 100 mg/kg, po QD for 21 days measured on day 22. The class given is organism-based, HCT-116. Also on record: dose 100 mg/kg, route oral. The settings on record: in vivo, 504 h.
Data set [7] can be described thus: Kinetic solubility of the compound at pH 7 with […] DMSO. In kind it is physicochemical. The note with it: buffer, read-out: Kinetic_solubility.
In data set [8] the test system is HCT-116. The data set can be described thus: Antitumor activity against human HCT116 cells xenografted in athymic nu/nu Harlan mouse assessed as tumor growth inhibition at 100 mg/kg, po qd for 21 days measured on day 22. The settings on record: read-out: TGI. The class given is functional.
Data set [9] has as its system HCT-116. The data set is described as follows: Antitumor activity against human HCT116 cells xenografted in athymic nu/nu Harlan mouse assessed as tumor growth inhibition at 50 mg/kg, po qd for 21 days measured on day 22. The settings on record: read-out: TGI. In kind it is functional. For orientation: Xenograft models place foreign cells or tissue in a host animal.

For data set [10], the system named is HCT-116. The data set can be described thus: Antitumor activity against human HCT116 cells xenografted in athymic nu/nu Harlan mouse assessed as tumor growth inhibition at 200 mg/kg, po qd for 21 days measured on day 22. The settings on record: read-out: TGI. The class given is functional.
Data set [11] is described as follows: Half life in human liver microsomes. The class given is ADME, Microsome.
The test system of data set [12] is Mus musculus. The data set is described as follows: Toxicity in athymic nu/nu Harlan mouse xenografted with human HCT116 cells assessed as mouse survival at 200 mg/kg, po QD for 21 days measured on day 22. The settings on record: in vivo, 504 h. Also on record: dose 200 mg/kg, route oral. The class given is organism-based, HCT-116.
Data set [13] deals with Mus musculus. The data set can be described thus: Toxicity in athymic nu/nu Harlan mouse xenografted with human HCT116 cells assessed as mouse survival at 50 mg/kg, po QD for 21 days measured on day 22. In kind it is organism-based, HCT-116. The arrangement: dose 50 mg/kg, route oral. The note with it: in vivo, 504 h.

For `CCCCCCc1nc2cc(/C=C/C(=O)NO)ccc2n1CCNCC.Cl.Cl`, the half-life (in general, the time needed for the level to fall by half in the phase considered) was determined as 48 min in data set [1], 1.6 min in data set [2], 1.1 min in data set [3] and 51 min in data set [11]. Moreover, in data set [4], the Papp A→B (as a rule, how fast a substance crosses the layer from the apical side) worked out at 0.97 ×10⁻⁶ cm/s. The Papp B→A – broadly, the apparent permeability from the basolateral to the apical side of a cell layer – in data set [5] was 10.5 ×10⁻⁶ cm/s. Besides, the Activity result in the data set with Mus musculus [6], with Mus musculus [12] and in the data set with Mus musculus [13] was “Non-toxic” in each case. The solubility kinetic in data set [7] is above 200 µM. In the data set with HCT-116 [8], the inhibition in vivo at 100 mg/kg is -7%. The inhibition in vivo at 50 mg/kg in the data set with HCT-116 [9] is -9%. In addition, the inhibition in vivo at 200 mg/kg in the data set with HCT-116 [10] came out at 41%.
